The record followed here is patent US10506810B2, “Synergistic herbicidal composition” (QINGDAO KINGAGROOT RESISTANT WEED MANAGEMENT CO., LTD., priority 2015, dated 2019).

Test [1] deals with Capsella bursa-pastoris. Briefly: pot-culture method, stem and leaf treatment in greenhouse, fresh weight inhibition rate 20 days after treatment (Gowing method). The class given is in vivo. As to the method:
(§1) Capsella bursa-pastoris, Myosoton aquaticum, Alopecurus japonicus were collected from corn fields in Huangdao Experimental Base of Shandong Province.
(§2) The above weeds were cultivated by a pot culture method. […] Full and uniform weed seeds were selected, soaked in warm water at 25° C. for 6 hours, and germinated in a 28° C. biochemical incubator (darkness). […] A certain amount of water was added to the enamel pan regularly to keep the soil moist.
(§3) The technical materials were all dissolved in acetone, and diluted with an aqueous solution containing 0.1% emulsifier T-80. The dilution is performed as required.
(§4) A ratio of the active ingredient A to the active ingredient B and amounts thereof in each group depends on the characteristics and toxicity of the two agents, as well as the main application purpose of a corresponding formulation. Based on the pre-tests in this study, the dosage of the active ingredient A and the active ingredient B applied alone and in combination were shown in the tables, and a total 15 groups were designed. Water containing the solvent and emulsifier same with the above groups but free of the agents was used as a blank control.
(§5) 3 pots with 20 weed seeds per pot were treated in one treatment with […] per treatment, that is, a total of 60 weeds were treated in one treatment.
(§6) The agents were used for only once in the experiment. In the stage of weeds with 2 leaves and 1 core, the weeds were thinned out to maintain 15 weeds per pot and 45 weeds for each treatment, then continued to be cultured to 3-5-leaves stage of Capsella bursa-pastoris and Myosoton aquaticum, and 3-leaves and 1-core stage of Alopecurus japonicus, and treated.
(§7) The well-cultured weeds were evenly placed on a platform with an area of 0.5 m^2, and a solution of agents was sprayed on the stems and leaves thereof by the 3WP-2000-type walking spray tower at a dosage of 30 kg/ha and at a spray pressure of 0.3 MPa. After all the solution was sprayed, the valve was closed. After 30 seconds, the door of the spray tower was opened, and the nutritional bowl was taken out. Then the valve was opened, and the spray tube was cleaned by spraying 50 ml of water.
(§8) A pot-culture method was employed. For the cultivation of weeds, please refer to the Section 1.2, and “Pesticide guidelines for laboratory bioactivity tests—herbicides”. As to a method for applying agents, please refer to the section 2.3.2, that is, a method for treating stems and leaves was employed.
(§9) A method for investigating absolute number was employed, wherein whole seedlings of survival weeds were cut off with a blade along the soil surface, and the fresh weight of the weeds was weighed with an analytical balance. For dead weeds, the fresh weight thereof was zero.
(§10) The investigation was performed after 20 days of the treatment for only once.
(§11) Wherein, in the formula, X represented the fresh weight inhibition rate of the active ingredient A in a dosage of P, and Y represented the fresh weight inhibition rate of the active ingredient B in a dosage of Q.

Test [2] concerns Myosoton aquaticum. Described as above. Type of test: in vivo. The protocol:
as §1, §2, §3, §4, §5, §6, §7, §8, §9, §10, §11

[3] abbreviates: Capsella bursa-pastoris, 480 h, read-out: actual fresh weight inhibition rate.
[4] abbreviates: Myosoton aquaticum, 480 h, read-out: actual fresh weight inhibition rate.

Read-outs that look alike come from different tables or passages of the source.

Turning to `CC(C)CCCCCOC(=O)COc1ccc(Cl)cc1Cl` [2,4-D isooctyl ester, reference compound], the “actual fresh weight inhibition rate (%)” value in test [1] (dosage 200 g/hm^2) was found to be 21.1%; in test [1] (dosage 350 g/hm^2) it was 34.2%; in test [1] (dosage 500 g/hm^2) it was 55.9%; in test [2] (dosage 200 g/hm^2), 15.4%; in test [2] (dosage 350 g/hm^2), 26.3%; in test [2] (dosage 500 g/hm^2), 47.9%.

In the case of `CCCCOC(=O)COc1ccc(Cl)cc1Cl` [2,4-butyl ester, 2,4-D butyl ester, reference compound], the “actual fresh weight inhibition rate (%)” value is recorded as 23.4% in test [1] (dosage 200 g/hm^2); 42.9% in test [1] (dosage 350 g/hm^2); 55.6% in test [1] (dosage 500 g/hm^2); 18.4% in test [2] (dosage 200 g/hm^2); 29.8% in test [2] (dosage 350 g/hm^2); 49.3% in test [2] (dosage 500 g/hm^2).

Take `N#Cc1cc(Br)c(O)c(Br)c1` [Bromoxynil]: the pest or weed control at 240 g/ha in test [1] (Capsella bursa-pastoris, 480 h, dosage 240 g/hm^2, read-out: actual fresh weight inhibition rate) amounted to 40.6%; in test [2] (Myosoton aquaticum, 480 h, dosage 240 g/hm^2, read-out: actual fresh weight inhibition rate), 30.5%. In addition, the pest or weed control at 360 g/ha in test [1] (Capsella bursa-pastoris, 480 h, dosage 360 g/hm^2, read-out: actual fresh weight inhibition rate) amounted to 58.5%; in test [2] (Myosoton aquaticum, 480 h, dosage 360 g/hm^2, read-out: actual fresh weight inhibition rate), 38.7%. Moreover, the pest or weed control at 480 g/ha in test [1] (Capsella bursa-pastoris, 480 h, dosage 480 g/hm^2, read-out: actual fresh weight inhibition rate) was determined as 81.3%; in test [2] (Myosoton aquaticum, 480 h, dosage 480 g/hm^2, read-out: actual fresh weight inhibition rate) it was 47.9%.

Consider `Cc1cc(Cl)ccc1OCC(=O)O` [MCPA, 2-methyl-4-chlorophenoxy acetic acid, reference compound], for which the “actual fresh weight inhibition rate (%)” value in test [1] (dosage 300 g/hm^2) is on record as 33.2%; in test [1] (dosage 600 g/hm^2), 41.7%; in test [1] (dosage 900 g/hm^2), 60.5%; in test [2] (dosage 300 g/hm^2), 23.8%; in test [2] (dosage 600 g/hm^2) it was 35.6%; in test [2] (dosage 900 g/hm^2), 45.8%.

In the case of `Cc1cc(Cl)ccc1OCC(=O)[O-].[Na+]` [MCPA-Na, reference compound], the “actual fresh weight inhibition rate (%)” value in test [1] (dosage 400 g/hm^2) is reported as 22.1%; in test [1] (dosage 800 g/hm^2) it was 38.3%; in test [1] (dosage 1200 g/hm^2), 56.7%; in test [2] (dosage 400 g/hm^2), 24.8%; in test [2] (dosage 800 g/hm^2) it was 36.9%; in test [2] (dosage 1200 g/hm^2), 50.9%.

In the case of `Cc1cc(Cl)ccc1OCC(=O)OCCCCCC(C)C` [MCPA-isooctyl, reference compound], the “actual fresh weight inhibition rate (%)” value in test [1] (dosage 600 g/hm^2) amounted to 33.2%; in test [1] (dosage 1200 g/hm^2), 41.7%; in test [1] (dosage 1800 g/hm^2) it was 60.5%; in test [2] (dosage 600 g/hm^2), 23.8%; in test [2] (dosage 1200 g/hm^2), 35.6%; in test [2] (dosage 1800 g/hm^2), 45.8%.

As to `CC(C)N1C(=O)c2ccccc2NS1(=O)=O` [bentazon], the pest or weed control at 500 g/ha was found to be 38.5% in test [1] (480 h, Capsella bursa-pastoris, 500 g/hm^2, read-out: actual fresh weight inhibition rate) and 33.4% in test [2] (Myosoton aquaticum, 480 h, Myosoton aquaticum, 500 g/hm^2, read-out: actual fresh weight inhibition rate). Besides, the pest or weed control at 750 g/ha came out at 58.2% in test [1] (480 h, Capsella bursa-pastoris, 750 g/hm^2, read-out: actual fresh weight inhibition rate) and 46.2% in test [2] (Myosoton aquaticum, 480 h, Myosoton aquaticum, 750 g/hm^2, read-out: actual fresh weight inhibition rate). The pest or weed control at 1000 g/ha in test [1] (480 h, Capsella bursa-pastoris, 1000 g/hm^2, read-out: actual fresh weight inhibition rate) stood at 73.1%; in test [2] (Myosoton aquaticum, 480 h, Myosoton aquaticum, 1000 g/hm^2, read-out: actual fresh weight inhibition rate) it was 58.7%.

For `CCCCCCCC(=O)Oc1c(Br)cc(C#N)cc1Br` [bromoxynil octanoate], the pest or weed control at 190 g/ha in test [1] (Capsella bursa-pastoris, 480 h, dosage 190 g/hm^2, read-out: actual fresh weight inhibition rate) was 42.7%; in test [2] (Myosoton aquaticum, 480 h, dosage 190 g/hm^2, read-out: actual fresh weight inhibition rate), 25.8%. The pest or weed control at 375 g/ha in test [1] (Capsella bursa-pastoris, 480 h, dosage 375 g/hm^2, read-out: actual fresh weight inhibition rate) was 55.7%; in test [2] (Myosoton aquaticum, 480 h, dosage 375 g/hm^2, read-out: actual fresh weight inhibition rate), 38.5%. Also, the pest or weed control at 560 g/ha in test [1] (Capsella bursa-pastoris, 480 h, dosage 560 g/hm^2, read-out: actual fresh weight inhibition rate) was determined as 78.6%; in test [2] (Myosoton aquaticum, 480 h, dosage 560 g/hm^2, read-out: actual fresh weight inhibition rate), 57.3%.

For `Cc1nn(-c2cc(CC(Cl)C(=O)O)c(Cl)cc2F)c(=O)n1C(F)F` (stereo not shown) [carfentrazone, reference compound], the “actual fresh weight inhibition rate (%)” value in test [1] (dosage 12 g/hm^2) was found to be 55.2%; in test [1] (dosage 24 g/hm^2) it was 71.3%; in test [1] (dosage 36 g/hm^2), 80.5%; in test [2] (dosage 12 g/hm^2), 32.1%; in test [2] (dosage 24 g/hm^2) it was 45.8%; in test [2] (dosage 36 g/hm^2), 60.1%.

Turning to `Cc1ccc(NC(=O)N(C)C)cc1Cl` [chlorotoluron], the pest or weed control at 1500 g/ha in test [1] (Capsella bursa-pastoris, 480 h, dosage 1500 g/hm^2, read-out: actual fresh weight inhibition rate) amounted to 33.5%; in test [2] (Myosoton aquaticum, 480 h, dosage 1500 g/hm^2, read-out: actual fresh weight inhibition rate), 34.7%. Moreover, the pest or weed control at 2250 g/ha in test [1] (Capsella bursa-pastoris, 480 h, dosage 2250 g/hm^2, read-out: actual fresh weight inhibition rate) is 43.7%; in test [2] (Myosoton aquaticum, 480 h, dosage 2250 g/hm^2, read-out: actual fresh weight inhibition rate), 43.8%. Besides, the pest or weed control at 3000 g/ha in test [1] (Capsella bursa-pastoris, 480 h, dosage 3000 g/hm^2, read-out: actual fresh weight inhibition rate) worked out at 57.3%; in test [2] (Myosoton aquaticum, 480 h, dosage 3000 g/hm^2, read-out: actual fresh weight inhibition rate), 60.1%.

On to `O=C(Nc1ccc(F)cc1F)c1cccnc1Oc1cccc(C(F)(F)F)c1` [diflufenican], for which the pest or weed control at 40 g/ha in test [1] (480 h, Capsella bursa-pastoris, 40 g/hm^2, read-out: actual fresh weight inhibition rate) stood at 33.1%; in test [2] (Myosoton aquaticum, 480 h, Myosoton aquaticum, 40 g/hm^2, read-out: actual fresh weight inhibition rate), 24.1%. Further, the pest or weed control at 80 g/ha in test [1] (480 h, Capsella bursa-pastoris, 80 g/hm^2, read-out: actual fresh weight inhibition rate) amounted to 48.2%; in test [2] (Myosoton aquaticum, 480 h, Myosoton aquaticum, 80 g/hm^2, read-out: actual fresh weight inhibition rate), 46.2%. Also, the pest or weed control at 120 g/ha came out at 63.4% in test [1] (480 h, Capsella bursa-pastoris, 120 g/hm^2, read-out: actual fresh weight inhibition rate) and 66.5% in test [2] (Myosoton aquaticum, 480 h, Myosoton aquaticum, 120 g/hm^2, read-out: actual fresh weight inhibition rate).

For `CN(C)C(=O)SCCCCOc1ccccc1` [fenothiocarb], in test [1] (setting [3]), the pest or weed control at 40 g/ha stood at 0%, the pest or weed control at 65 g/ha came to 0% and the pest or weed control at 90 g/ha turned out to be 0%. Besides, in test [2] (setting [4]), the pest or weed control at 40 g/ha came to 70.3%, the pest or weed control at 65 g/ha turned out to be 84.5% and the pest or weed control at 90 g/ha came to 97.3%.

Regarding `COc1ncc(F)c2nc(S(=O)(=O)Nc3c(F)cccc3F)nn12` [florasulam], the “actual fresh weight inhibition rate” value was determined as 45.8% in test [1] (Capsella bursa-pastoris, 2.5 g/hm^2); 60.4% in test [1] (Capsella bursa-pastoris, 5 g/hm^2); 28.3% in test [2] (Myosoton aquaticum, 2.5 g/hm^2); 41.9% in test [2] (Myosoton aquaticum, 5 g/hm^2).

Turning to `O=C(O)COC(=O)c1cc(Oc2ccc(C(F)(F)F)cc2Cl)ccc1[N+](=O)[O-]` [fluoroglycofen, reference compound], the “actual fresh weight inhibition rate (%)” value in test [1] (dosage 5 g/hm^2) amounted to 47.4%; in test [1] (dosage 10 g/hm^2) it was 61.6%; in test [1] (dosage 15 g/hm^2) it was 70.5%; in test [2] (dosage 5 g/hm^2) it was 37.9%; in test [2] (dosage 10 g/hm^2) it was 41.8%; in test [2] (dosage 15 g/hm^2), 55.4%.

As for `Nc1c(Cl)c(F)nc(OCC(=O)O)c1Cl` [fluroxypyr, reference compound], the “actual fresh weight inhibition rate (%)” value in test [1] (dosage 100 g/hm^2) is given as 10.1%; in test [1] (dosage 150 g/hm^2), 18.3%; in test [1] (dosage 200 g/hm^2), 28.7%; in test [2] (dosage 100 g/hm^2), 90.1%; in test [2] (dosage 150 g/hm^2), 100%; in test [2] (dosage 200 g/hm^2) it was 100%.
